Two compounds from patent publication US7138113B2, “Glycoprotein matrix compositions and methods related thereto” (Pharmachem Laboratories, Inc., priority 2001, dated 2006) can be followed below.

Data set [1] has as its system lower density lipoproteins (LDL+VLDL). The data set can be described thus: Inhibition of cupric ion oxidation of lower density lipoproteins (quality of antioxidant activity). Particulars: 6 hours.
Data set [2] in a line: Stability of CoQ10 in a 50° C. oven open to the air (HPLC). The data set is classed as physicochemical. The conditions noted are these: for Loss of CoQ10 after 36 days at 50° C. (equivalent to 3 months at room temperature) / Loss of CoQ10 after 72 days at 50° C. (equivalent to 6 months at room temperature): open to the air. How it is done: 100 mg of USP CoQ10 (Sigma) and a composition from Example 1 was placed in a 10 ml beaker in a 50° C. oven open to the air. The amount of CoQ10 remaining was analyzed by HPLC using a C18 column (Perkin Elmer Pecosil 5, 15 cm) and a solvent of 75% methanol and 25% isopropanol.

Take `COC1=C(OC)C(=O)C(C/C=C(\C)CC/C=C(\C)CC/C=C(\C)CC/C=C(\C)CC/C=C(\C)CC/C=C(\C)CC/C=C(\C)CC/C=C(\C)CC/C=C(\C)CCC=C(C)C)=C(C)C1=O` [CoQ10 (USP), CoEnzyme Q10]: in data set [1] (LDL+VLDL oxidation, 25 μM cupric ion, 37° C., based on CoQ10 conc.), it took 1.33 µM to reach half-maximal inhibition (IC50). Further, the “Loss of CoQ10 at 0 days” value in data set [2] (0 days) was 0%. In addition, the “Loss of CoQ10 after 36 days at 50° C. (equivalent to 3 months at room temperature)” value in data set [2] (listed as USP CoQ10) and in data set [2] (listed as commercial CoQ10) was 6.8% throughout. Further, the “Loss of CoQ10 after 72 days at 50° C. (equivalent to 6 months at room temperature)” value in data set [2] (listed as USP CoQ10) and in data set [2] (listed as commercial sample) was 16.8% throughout.
For `C[Se]CC[C@H](N)C(=O)O` [Selenomethionine], the IC50 in data set [1] (concentration of selenium to inhibit LDL+VLDL oxidation 50%, cupric ion) came to 27 µM.
